Reference: ChEMBL document CHEMBL6134832, “Expanding the utilization of binding pockets proves to be effective for noncovalent small molecule inhibitors against SARS-CoV-2 Mpro” (Eur J Med Chem, 2025)
Activity calls are given as the source filed them. No cut-off for these calls is given here.

Experiments:
Type in all cases: functional, organism-based
SARS-CoV-2 [1] = test: Antiviral activity against SARS-CoV-2 omicron BA.5 variant infected in po dosed K18-hACE2 transgenic mouse model assessed as reduction in viral RNA loads in lung pretreated for 2 hrs followed by viral infection and measured on 2 dpi; conditions: Severe acute respiratory syndrome coronavirus 2, time 50.0 hrs
SARS-CoV-2 [2] = test: Antiviral activity against SARS-CoV-2 omicron BA.5 variant infected in K18-hACE2 transgenic mouse model assessed as reduction in viral titers in lung at 15 to 90 mg/kg, po pretreated for 2 hrs followed by viral infection and measured on 2 dpi; conditions: Severe acute respiratory syndrome coronavirus 2, dose 15-90 mg/kg, time 50.0 hrs
SARS-CoV-2 [3] = test: Antiviral activity against SARS-CoV-2 omicron BA.5 variant infected in K18-hACE2 transgenic mouse model assessed as reduction in disease severity at 15 to 30 mg/kg, po pretreated for 2 hrs followed by viral infection and measured on 2 dpi; conditions: Severe acute respiratory syndrome coronavirus 2, dose 15-30 mg/kg, time 50.0 hrs
SARS-CoV-2 [4] = test: Antiviral activity against SARS-CoV-2 omicron BA.5 variant infected in K18-hACE2 transgenic mouse model assessed as reduction in degree of damage at 15 to 30 mg/kg, po pretreated for 2 hrs followed by viral infection and measured on 2 dpi; conditions: Severe acute respiratory syndrome coronavirus 2, dose 15-30 mg/kg, time 50.0 hrs
SARS-CoV-2 [5] = test: Antiviral activity against SARS-CoV-2 omicron BA.5 variant infected in K18-hACE2 transgenic mouse model assessed as septal thickening in lung at 90 mg/kg, po pretreated for 2 hrs followed by viral infection and measured on 2 dpi; conditions: Severe acute respiratory syndrome coronavirus 2, time 50.0 hrs
SARS-CoV-2 [6] = test: Antiviral activity against SARS-CoV-2 omicron BA.5 variant infected in K18-hACE2 transgenic mouse model assessed as inflammatory cell infiltration in lung at 90 mg/kg, po pretreated for 2 hrs followed by viral infection and measured on 2 dpi; conditions: Severe acute respiratory syndrome coronavirus 2, time 50.0 hrs
SARS-CoV-2 [7] = test: Antiviral activity against SARS-CoV-2 omicron BA.5 variant infected in K18-hACE2 transgenic mouse model assessed as reduction in viral RNA loads in lung at 30 mg/kg, po pretreated for 2 hrs followed by viral infection and measured on 2 dpi; conditions: Severe acute respiratory syndrome coronavirus 2, time 50.0 hrs
SARS-CoV-2 [8] = test: Antiviral activity against SARS-CoV-2 omicron BA.5 variant infected in K18-hACE2 transgenic mouse model assessed as reduction in viral titers in lung at 30 mg/kg, po pretreated for 2 hrs followed by viral infection and measured on 2 dpi; conditions: Severe acute respiratory syndrome coronavirus 2, time 50.0 hrs
SARS-CoV-2 [9] = test: Antiviral activity against SARS-CoV-2 omicron BA.5 variant infected in K18-hACE2 transgenic mouse model assessed as inflammatory cell infiltration in lung at 40 mg/kg, po pretreated for 2 hrs followed by viral infection and measured on 2 dpi; conditions: Severe acute respiratory syndrome coronavirus 2, time 50.0 hrs
SARS-CoV-2 [10] = test: Antiviral activity against SARS-CoV-2 omicron BA.5 variant infected in K18-hACE2 transgenic mouse model assessed as septal thickening in lung at 40 mg/kg, po pretreated for 2 hrs followed by viral infection and measured on 2 dpi; conditions: Severe acute respiratory syndrome coronavirus 2, time 50.0 hrs
SARS-CoV-2 [11] = test: Antiviral activity against SARS-CoV-2 omicron BA.5 variant infected in K18-hACE2 transgenic mouse model assessed as reduction in viral RNA loads in lung at 80 mg/kg, po pretreated for 2 hrs followed by viral infection and measured on 2 dpi; conditions: Severe acute respiratory syndrome coronavirus 2, time 50.0 hrs
SARS-CoV-2 [12] = test: Antiviral activity against SARS-CoV-2 omicron BA.5 variant infected in K18-hACE2 transgenic mouse model assessed as reduction in viral titers in lung at 20 to 80 mg/kg, po pretreated for 2 hrs followed by viral infection and measured on 2 dpi; conditions: Severe acute respiratory syndrome coronavirus 2, dose 20-80 mg/kg, time 50.0 hrs
SARS-CoV-2 [13] = test: Antiviral activity against SARS-CoV-2 omicron BA.5 variant infected in K18-hACE2 transgenic mouse model assessed as reduction in disease severity at 20 mg/kg, po pretreated for 2 hrs followed by viral infection and measured on 2 dpi; conditions: Severe acute respiratory syndrome coronavirus 2, time 50.0 hrs
SARS-CoV-2 [14] = test: Antiviral activity against SARS-CoV-2 omicron BA.5 variant infected in K18-hACE2 transgenic mouse model assessed as reduction in degree of damage at 20 mg/kg, po pretreated for 2 hrs followed by viral infection and measured on 2 dpi; conditions: Severe acute respiratory syndrome coronavirus 2, time 50.0 hrs
SARS-CoV-2 [15] = test: Antiviral activity against SARS-CoV-2 omicron BA.5 variant infected in K18-hACE2 transgenic mouse model assessed as septal thickening in lung at 40 to 80 mg/kg, po pretreated for 2 hrs followed by viral infection and measured on 2 dpi; conditions: Severe acute respiratory syndrome coronavirus 2, dose 40-80 mg/kg, time 50.0 hrs
SARS-CoV-2 [16] = test: Antiviral activity against SARS-CoV-2 omicron BA.5 variant infected in K18-hACE2 transgenic mouse model assessed as inflammatory cell infiltration in lung at 40 to 80 mg/kg, po pretreated for 2 hrs followed by viral infection and measured on 2 dpi; conditions: Severe acute respiratory syndrome coronavirus 2, dose 40-80 mg/kg, time 50.0 hrs

SMILES	Activity (SARS-CoV-2 [1])	Activity (SARS-CoV-2 [2])	Activity (SARS-CoV-2 [3])	Activity (SARS-CoV-2 [4])	Activity (SARS-CoV-2 [5])	Activity (SARS-CoV-2 [6])	Activity (SARS-CoV-2 [7])	Activity (SARS-CoV-2 [8])	Activity (SARS-CoV-2 [9])	Activity (SARS-CoV-2 [10])	Activity (SARS-CoV-2 [11])	Activity (SARS-CoV-2 [12])	Activity (SARS-CoV-2 [13])	Activity (SARS-CoV-2 [14])	Activity (SARS-CoV-2 [15])	Activity (SARS-CoV-2 [16])
Cc1ccc(C#N)cc1Cn1c(=O)n(-c2cncc(SC3CC3)c2)c(=O)[nH]/c1=N\c1cc2cn(C)nc2cc1Cl	Dose-dependent-effect	Active	Active	Active	Active	Mild_effect										
Cn1cnc(Cn2c(=O)[nH]/c(=N\c3cc4cn(C)nc4cc3Cl)n(Cc3cc(F)c(F)cc3F)c2=O)n1	Dose-dependent-effect						Active	Active	Mild_effect	Active						
Cn1cc2cc(/N=c3\[nH]c(=O)n(-c4cccnc4)c(=O)n3Cc3cc(F)c(F)cc3F)c(Cl)cc2n1	Dose-dependent-effect										Active	Active	Active	Active	Active	Mild_effect
